From US20200038399A1, “FORMULATIONS, METHODS, KIT, AND DOSAGE FORMS FOR TREATING BACTERIAL INFECTION” (Motif BioSciences Inc., priority 2016, published 2020)

Columns and labels:
S. pneumoniae 1/1 [1] = test: checkerboard synergy assay with iclaprim; format: cell-based, Streptococcus pneumoniae; details: antibiotic in combination with iclaprim
S. aureus 101 [2] = test: MIC determination; format: cell-based, Staphylococcus aureus; details: for MIC: Staphylococcus aureus, 101, 18 h, read-out: Minimum inhibitory concentrations (MIC)
Summary of the method: (§1)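 Broth microdilution MICs: H. influenzae in HTM (Mueller-Hinton broth, yeast extract, NAD, hematin), M. catarrhalis in Brain Heart Infusion, others in cation-adjusted Mueller-Hinton broth.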

S. aureus 101 [3] = test: checkerboard synergy assay with iclaprim; format: cell-based, Staphylococcus aureus; details: antibiotic in combination with iclaprim
[4] = tested on: Klebsiella pneumoniae ATCC 33495; test: MIC determination; format: cell-based; details: K. pneumonia 33495, 18 hours at 37° C.; for MIC: Klebsiella pneumoniae, ATCC33495, read-out: Minimum inhibitory concentrations (MIC)
Summary of the method: as §1

[5] = tested on: Staphylococcus aureus ATCC 25923; test: MIC determination; format: cell-based; details: S. aureus 25923, 18 hours at 37° C.; for MIC: Staphylococcus aureus, ATCC25923, read-out: Minimum inhibitory concentrations (MIC)
Summary of the method: as §1

[6] = tested on: Streptococcus pneumoniae ATCC 49619; test: MIC determination; format: cell-based; details: S. pneumoniae 49619, 18 hours at 37° C., 5% CO2; for MIC: Streptococcus pneumoniae, ATCC49619, read-out: Minimum inhibitory concentrations (MIC)
[7] = tested on: Moraxella catarrhalis RA 21; test: MIC determination; format: cell-based; details: M. catarrhalis RA 21, 18 hours at 37° C., 5% CO2; for MIC: Moraxella catarrhalis, RA21, read-out: Minimum inhibitory concentrations (MIC)
Summary of the method: as §1

[8] = tested on: Haemophilus influenzae ATCC 49766; test: MIC determination; format: cell-based; details: H. Influenza 49766, 18 hours at 37° C., 5% CO2; for MIC: Haemophilus influenzae, ATCC49766, read-out: Minimum inhibitory concentrations (MIC)
Summary of the method: as §1

S. pneumoniae 1/1 [9] = test: MIC determination; format: cell-based, Streptococcus pneumoniae; details: S. pneumoniae 1/1, 18 hours at 37° C., 5% CO2; for MIC: Streptococcus pneumoniae, read-out: Minimum inhibitory concentrations (MIC)
[10] = tested on: Klebsiella pneumoniae ATCC 33495; test: checkerboard synergy assay with iclaprim; format: cell-based; details: antibiotic in combination with iclaprim; K. pneumoniae 33495
[11] = tested on: Staphylococcus aureus ATCC 25923; test: checkerboard synergy assay with iclaprim; format: cell-based; details: antibiotic in combination with iclaprim; S. aureus 25923
[12] = tested on: Streptococcus pneumoniae ATCC 49619; test: checkerboard synergy assay with iclaprim; format: cell-based; details: antibiotic in combination with iclaprim; S. pneumoniae 49619
[13] = tested on: Moraxella catarrhalis RA 21; test: checkerboard synergy assay with iclaprim; format: cell-based; details: antibiotic in combination with iclaprim; M. catarrhalis RA 21
[14] = tested on: Haemophilus influenzae ATCC 49766; test: checkerboard synergy assay with iclaprim; format: cell-based; details: antibiotic in combination with iclaprim; H. influenzae 49766

| SMILES | Σ FIC (S. pneumoniae 1/1 [1]) | MIC (S. aureus 101 [2]) [µg/mL] | Σ FIC (S. aureus 101 [3]) | MIC [4] [µg/mL] | MIC [5] [µg/mL] | MIC [6] [µg/mL] | MIC [7] [µg/mL] | MIC [8] [µg/mL] | MIC (S. pneumoniae 1/1 [9]) [µg/mL] | Con (Conclusion) [10] | Σ FIC [10] | Σ FIC [11] | Σ FIC [12] | Con (Conclusion) [13] | Σ FIC [13] | Con (Conclusion) [14] | Σ FIC [14] | further results |
| --- | --- | --- | --- | --- | --- | --- | --- | --- | --- | --- | --- | --- | --- | --- | --- | --- | --- | --- |
| CO[C@@]1(NC(=O)C(C(=O)O)c2ccc(O)cc2)C(=O)N2C(C(=O)O)=C(CSc3nnnn3C)CO[C@@H]21 (some centres unmarked) [Moxalactam] | 1.13-1.50 | 4 | 0.63-1.25 | 8 | 1 | 1 | 2 | 1 | 4 | Ad (Additivity (Ad)) | 0.75-1.25 | 0.56-1.25 | 1.00-1.25 | Ind (Indifference (Ind)) | 1.00-1.25 | Ind (Indifference (Ind)) | 1.06-1.50 |  |
| CCn1cc(C(=O)O)c(=O)c2cc(F)c(N3CCNCC3)cc21 [Norfloxacin] | 1.13-1.50 | 128 | 1.02-1.50 | 2 | 1 | 4 | 0.5 | 0.125 | 4 | Ad (Additivity (Ad)) | 0.75-1.13 | 0.56-1.25 | 1.00-1.25 | Ad (Additivity (Ad)) | 0.56-1.13 | Ad (Additivity (Ad)) | 0.52-1.25 |  |
| CO[C@@H]1[C@@H](OC(N)=O)[C@@H](O)[C@H](Oc2ccc3c(O)c(NC(=O)c4ccc(O)c(CC=C(C)C)c4)c(=O)oc3c2C)OC1(C)C [Novobiocin] | 1.03-1.50 | 0.25 | 1.03-1.50 | 128 | 0.5 | 2 | 0.25 | 0.25 | 4 | Ind (Indifference (Ind)) | 1.00-1.25 | 1.02-1.50 | 0.75-1.13 | Ind (Indifference (Ind)) | 1.00-1.05 | Ind (Indifference (Ind)) | 1.03-1.50 |  |
| Cc1onc(-c2ccccc2)c1C(=O)N[C@@H]1C(=O)N2[C@@H]1SC(C)(C)[C@@H]2C(=O)O [Oxacillin] | 1.06-1.50 | 8 | 1.00-1.25 | > 128 | 0.125 | 2 | 32 | 16 | 32 | Ind (Indifference (Ind)) | 1.01-1.50 | 1.06-1.50 | 1.06-1.50 | Ind (Indifference (Ind)) | 1.06-1.50 | Ind (Indifference (Ind)) | 1.00-1.25 |  |
| CC1(C)S[C@@H]2[C@H](NC(=O)Cc3ccccc3)C(=O)N2[C@H]1C(=O)O [Penicillin G] | 0.75-1.13 |  | 1.00-1.25 |  |  |  |  |  |  | Ad (Additivity (Ad)) | 0.52-1.25 | 1.00-1.25 | 1.00-1.25 | Ind (Indifference (Ind)) | 1.13-1.50 | Ind (Indifference (Ind)) | 1.03-1.50 | Con (Conclusion) (S. pneumoniae 1/1 [1]): Ad (Additivity (Ad)); Minimum inhibitory concentrations (MIC) (S. aureus 101 [2]; S. aureus 101, 18 hours at 37° C.): 128 µg/mL; Con (Conclusion) (S. aureus 101 [3]): Ind (Indifference (Ind)); Minimum inhibitory concentrations (MIC) [4]: 128 µg/mL; Minimum inhibitory concentrations (MIC) [5]: 0.031 µg/mL; Minimum inhibitory concentrations (MIC) [6]: 0.25 µg/mL; Minimum inhibitory concentrations (MIC) [7]: 16 µg/mL; Minimum inhibitory concentrations (MIC) [8]: 0.25 µg/mL; Minimum inhibitory concentrations (MIC) (S. pneumoniae 1/1 [9]): 4 µg/mL; Con (Conclusion) [11]: Ind (Indifference (Ind)); Con (Conclusion) [12]: Ind (Indifference (Ind)) |
| CCN1CCN(C(=O)N[C@@H](C(=O)N[C@@H]2C(=O)N3[C@@H]2SC(C)(C)[C@@H]3C(=O)O)c2ccccc2)C(=O)C1=O [Piperacillin] | 0.63-1.13 | > 128 | 1.01-1.50 | 32 | 0.5 | 2 | 0.25 | 0.031 | 8 | Ad (Additivity (Ad)) | 0.53-1.25 | 1.06-1.50 | 1.02-1.50 | Ind (Indifference (Ind)) | 1.03-1.50 | Ad (Additivity (Ad)) | 0.54-1.25 |  |
| COc1ccc(C[C@H](N)C(=O)N[C@H]2[C@@H](O)[C@H](n3cnc4c(N(C)C)ncnc43)O[C@@H]2CO)cc1 [Puromycin] | 1.13-1.50 | 16 | 1.13-1.50 | > 128 | 32 | 8 | 4 | 8 | 8 | Ind (Indifference (Ind)) | 1.01-1.50 | 1.06-1.50 | 0.63-1.25 | Ind (Indifference (Ind)) | 1.06-1.50 | Ind (Indifference (Ind)) | 1.06-1.50 |  |
| CC[C@H]1OC(=O)[C@H](C)[C@@H](O[C@H]2C[C@@](C)(OC)[C@@H](O)[C@H](C)O2)[C@H](C)[C@@H](O[C@@H]2O[C@H](C)C[C@H](N(C)C)[C@H]2O)[C@](C)(O)C[C@@H](C)/C(=N\OCOCCOC)[C@H](C)[C@@H](O)[C@]1(C)O [Roxithromycin] | 0.75-1.13 | > 128 | 1.01-1.80 | > 128 | 1 | 0.5 | 0.25 | 16 | 0.5 | Ind (Indifference (Ind)) | 1.01-1.50 | 1.06-1.50 | 1.02-1.50 | Ind (Indifference (Ind)) | 1.03-1.50 | Ind (Indifference (Ind)) | 1.03-1.50 |  |
